The results in this text go back to patent US9493466B2, “Treatment of cancer with TOR kinase inhibitors” (Signal Pharmaceuticals, LLC, priority 2011, dated 2016).

Structures are written as SMILES.

Experiment [1] deals with G144-Luc cells. Briefly: G144 cancer stem cell derived intracranial glioblastoma model. The format is in vivo, Nude mice. The following applies: 10 mg/kg and 20 mg/kg QD oral, up to 6 weeks; FIG. 15. The protocol:
G144 Cancer Stem Cell Derived Intracranial Glioblastoma Model (Compound 1). An intracranial glioblastoma study was conducted with G144 glioblastoma cells transfected with luciferase (G144-Luc). Nude mice were inoculated intracranially with G144-Luc cells into the brain. Following inoculation of animals, the tumors were allowed to grow for 5 weeks. At the end of 5 weeks following tumor cell inoculation, the mice were imaged using Xenogen imaging system. The mice having tumors with an average flux ranging between 3.71×10^6 and 3.87×10^7 photons/sec were pooled together and randomized into various treatment groups. Compound 1 was formulated in 0.5% CMC and 0.25% Tween 80 in water (as a suspension). The animals were orally administered vehicle (CMC-Tween) or Compound 1 once daily (QD) for up to 6 weeks. Doses of 10 mg/kg and 20 mg/kg Compound 1 were used. The positive control Temozolomide (TMZ) (10 mg/kg, QD) was administered via intra peritoneal (IP) route. Temozolomide was formulated in 5% N-methylpyrrolidone, 45% PEG400 and 50% saline. The animals were monitored for tumor growth by imaging for bioluminescence once a week using Xenogen imaging system. Statistical analysis was performed using a one-way analysis of variance (ANOVA) followed by Dunnett's post-hoc comparison with the vehicle-treated control groups.

For experiment [2], the system named is DLBCL. The experiment is described as follows: Phase 1/2 study Part B: tumor response, DLBCL. It counts as in vivo, human. The following applies: 11 evaluable patients. From the text: (§1) In Part B, subjects may start Compound 1 at the MTD and/or a lower dose level based on safety, PK and PD data from Part A. Approximately 150 subjects will be treated and evaluated for safety and preliminary antitumor activity after every two cycles of therapy. Tumor types include non-small cell lung cancer (NSCLC), glioblastoma multiforme (GBM), hepatocellular carcinoma (HCC), gastrointestinal neuroendocrine tumor of non-pancreatic origin (NET), diffuse large B-cell lymphoma (DLBCL), multiple myeloma (MM), and hormone receptor positive breast cancer (HRPBC). Up to 20 subjects will be enrolled in each tumor type.
Subjects will be evaluated for efficacy every 2 cycles through cycle 6 and every 3 cycles thereafter. The primary efficacy variable is response. Tumor assessments, including imaging (CT, MRI and/or PET) of the chest and abdomen and other sites as appropriate, will be performed during Screening. Subjects with brain lesions will also have brain scans at Screening and during follow-up tumor assessments. After Screening, tumor assessments (for all tumors except multiple myeloma) will be performed on completion of Cycles 2, 4 and 6 (i.e., on Cycles 3, 5 and 7/Day 1±7 days) and then every 3 months thereafter (e.g., Cycle 10 and 13/Day 1±7 days). Tumor assessment (for multiple myeloma and only NHL/DLBCL with known or suspected marrow involvement) (bone marrow aspiration and biopsy, with PD biomarker analysis, cytogenetic analysis if abnormally present at Screening) will be performed on completion of Cycles 4, 8, 12 and 16 only (i.e., on Cycles 5, 9, 13 and 17/Day 1±7 days). Cytogenetics need not be repeated if normal at Screening. […] Subjects will be evaluated for tumor response on completion of Cycle 2, 4, 6, and so on. […]
(§2) For Part B, efficacy variables to be analyzed include tumor response at the end of treatment, the proportion of subject alive and progression-free, and duration of response. […]

Experiment [3] concerns NET. The experiment is described as follows: Phase 1/2 study Part B: tumor response, NET. The format is in vivo, human.
Excerpt: as §1
Subjects will be evaluated for efficacy every 2 cycles through cycle 6 and every 3 cycles thereafter. The primary efficacy variable is response. Tumor assessments, including imaging (CT, MRI and/or PET) of the chest and abdomen and other sites as appropriate, will be performed during Screening. Subjects with brain lesions will also have brain scans at Screening and during follow-up tumor assessments. After Screening, tumor assessments (for all tumors except multiple myeloma) will be performed on completion of Cycles 2, 4 and 6 (i.e., on Cycles 3, 5 and 7/Day 1±7 days) and then every 3 months thereafter (e.g., Cycle 10 and 13/Day 1±7 days). Tumor assessment (for multiple myeloma and only NHL/DLBCL with known or suspected marrow involvement) (bone marrow aspiration and biopsy, with PD biomarker analysis, cytogenetic analysis if abnormally present at Screening) will be performed on completion of Cycles 4, 8, 12 and 16 only (i.e., on Cycles 5, 9, 13 and 17/Day 1±7 days). Cytogenetics need not be repeated if normal at Screening. Tumor response will be based on Response Evaluation Criteria in Solid Tumors (RECIST 1.1), International Workshop Criteria (IWC) for NHL/DLBCL or International Uniform Response Criteria (IURC) for Multiple Myeloma, and RANO for GBM, using the post resection MRI scan as the baseline. Given the difficulty in assessing tumor response following salvage surgery, the primary efficacy endpoint for GBM will be the proportion of subjects progression-free at 6 months from Day 1 relative to efficacy evaluable subjects in the GBM type. Subjects will be evaluated for tumor response on completion of Cycle 2, 4, 6, and so on. A descriptive analysis of evidence of anti-tumor activity will be provided based on clinical and radiographic assessments by the investigator, which includes assessment of target lesion, non-target lesion, new lesion and overall response.
as §2

The test system of experiment [4] is GBM. Briefly: Phase 1/2 study Part B: tumor response, GBM. It counts as in vivo, human. Conditions: 10 evaluable GBM patients.
Excerpt: as §1
Subjects will be evaluated for efficacy every 2 cycles through cycle 6 and every 3 cycles thereafter. The primary efficacy variable is response. Tumor assessments, including imaging (CT, MRI and/or PET) of the chest and abdomen and other sites as appropriate, will be performed during Screening. Subjects with brain lesions will also have brain scans at Screening and during follow-up tumor assessments. […] Subjects will be evaluated for tumor response on completion of Cycle 2, 4, 6, and so on. […]
as §2

`CO[C@H]1CC[C@H](N2C(=O)CNc3ncc(-c4ccc(C(C)(C)O)nc4)nc32)CC1` [Compound 1, 7-(6-(2-hydroxypropan-2-yl)pyridin-3-yl)-1-((1r,4r)-4-methoxycyclohexyl)-3,4-dihydropyrazino-[2,3-b]pyrazin-2(1H)-one]: the intracranial tumor growth result in experiment [1] is reported as “significantly inhibited”. Moreover, in experiment [2], the “best target lesions responses (reduction)” value was “up to 75%”, the “patients meeting Partial Response (RECIST 1.1)” value is 2 patients and the “patients meeting at least Stable Disease (RECIST 1.1)” value was found to be 1 patient. In addition, in experiment [3] (majority of subjects), the “tumor metabolic activity by PET imaging” value is reported as “reductions in tumor metabolic activity”. Also, the “patients meeting Stable Disease (RECIST 1.1)” value in experiment [3] (patients with sufficient follow up) is given as “Six patients”. In addition, the “endocrine hormone markers (chromogranin, gastrin, serotonin, glucagon)” value in experiment [3] (some patients) was “reductions”. Besides, the carcinoid syndrome-related symptoms result in experiment [3] (some patients with refractory baseline symptoms) is given as “improvements”. For the same molecule, in experiment [4], the “clinical activity, defined as 6-month Progression-Free Survival” value is listed as “No signs of clinical activity”.
